The test concerns cells growing in a cell-exclusion patterned cell culture. Briefly: Cell-exclusion patterned cell culture in the presence and absence of a drug (cell proliferation and migration). In kind it is cell-based. The conditions noted are these: uncoated well bottoms; micrographs pretreatment (t=0 h), after 14 h and 40 h of treatment; FIG. 11. The procedure:
Cell-exclusion patterning was carried out by a sequence of steps, as illustrated in FIG. 3. In Step A, complete medium was added to wells of a microtiter plate. The volume added was approximately 30 ul for 384-well plates or 75 ul for 96-well plates. In step B, a comb having guide pins and blocking pins was lowered into the microtiter plate and the blocking pins were locked into the desired wells and the guide pins into the corresponding guide holes. In step C, cells were introduced into the wells of the microtiter plate by adding a solution containing cells to the walls of the wells. The volume of the cell solution was approximately 20 ul for 384-well plates or 25-50 ul for 96-well plates. The cell density was 8000 cells per well and 30,000 cells per well for 384- and 96-well plates, respectively. In step D, the cells were allowed to settle and adhere to the well bottom inside a cell culture hood for about 45 min. The microplates were then placed inside a humidified incubator at 37° C. and 5% CO2 for 3-4 h to allow the cells to attach to the well bottom. In step E, the comb and the pins were removed from the wells. Drugs were then added, if necessary to carry out an assay.
Cell patterns were imaged by bright-field or fluorescent microscopy or by using Corning Epic® label-free high-resolution optical resonance detection system (available from Corning Incorporated, Corning, N.Y.). […]

Molecules are shown by their SMILES.

In the case of `C=C1[C@@H](C)[C@H]2[C@H](Cc3ccccc3)NC(=O)[C@]23[C@H](OC(C)=O)/C=C/[C@@](C)(O)C(=O)[C@@H](C)C/C=C/[C@H]3[C@@H]1O` [CytoD, Cytochalasin D], the “growth of cells into the cell exclusion area over time” value was “cells do not grow into the cell exclusion area over time”.

The record behind these values is patent US20140243243A1, “DEVICE AND METHOD FOR CELL-EXCLUSION PATTERNING” (Corning Incorporated, priority 2012, published 2014).
